Test results from the kinase profiling compilation of Christmann-Franck et al. (2016).

Assays:
Test in all cases: KINOMEscan competition binding
Details in all cases: compound 10.0 µM
DSTYK (human) = DSTYK (human) (UniProt Q6XUX3)
NEK3 (human) = NEK3 (human) (UniProt P51956)
LRRK2 (human) = LRRK2 (human) (UniProt Q5S007)
MATK (human) = MATK (human) (UniProt P42679)
HUNK (human) = HUNK (human) (UniProt P57058)
PIK3CA (human) = PIK3CA (human) (UniProt P42336)
[1] = system: FLT3 (human), P36888 [K663Q]
ROCK1 (human) = ROCK1 (human) (UniProt Q13464)
ERN1 (human) = ERN1 (human) (UniProt O75460)
CDKL5 (human) = CDKL5 (human) (UniProt O76039)
MAK (human) = MAK (human) (UniProt P20794)
PI4KB (human) = PI4KB (human) (UniProt Q9UBF8)
SBK1 (human) = SBK1 (human) (UniProt Q52WX2)
TRPM6 (human) = TRPM6 (human) (UniProt Q9BX84)
CDKL3 (human) = CDKL3 (human) (UniProt Q8IVW4)
MAP2K5 (human) = MAP2K5 (human) (UniProt Q13163)
RPS6KB1 (human) = RPS6KB1 (human) (UniProt P23443)
HIPK3 (human) = HIPK3 (human) (UniProt Q9H422)
PRPF4B (human) = PRPF4B (human) (UniProt Q13523)
STK32A (human) = STK32A (human) (UniProt Q8WU08)
Sequence of STK32A (human) (Q8WU08 whole entry, looked up): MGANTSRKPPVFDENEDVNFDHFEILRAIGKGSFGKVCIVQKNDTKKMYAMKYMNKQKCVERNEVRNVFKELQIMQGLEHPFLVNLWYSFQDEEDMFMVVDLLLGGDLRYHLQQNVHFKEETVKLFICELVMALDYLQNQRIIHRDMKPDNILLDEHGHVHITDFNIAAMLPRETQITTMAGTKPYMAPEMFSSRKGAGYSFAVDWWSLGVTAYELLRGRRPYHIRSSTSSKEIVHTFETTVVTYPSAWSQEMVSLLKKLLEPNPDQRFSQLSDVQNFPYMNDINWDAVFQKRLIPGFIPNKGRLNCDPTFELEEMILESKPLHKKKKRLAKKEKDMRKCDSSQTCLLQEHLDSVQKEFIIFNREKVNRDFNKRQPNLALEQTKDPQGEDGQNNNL

CDK4 CCND1 (human) = CDK4 CCND1 (human) (UniProt P11802+P24385)
Sequence of CDK4 CCND1 (human) (P11802 whole entry, looked up): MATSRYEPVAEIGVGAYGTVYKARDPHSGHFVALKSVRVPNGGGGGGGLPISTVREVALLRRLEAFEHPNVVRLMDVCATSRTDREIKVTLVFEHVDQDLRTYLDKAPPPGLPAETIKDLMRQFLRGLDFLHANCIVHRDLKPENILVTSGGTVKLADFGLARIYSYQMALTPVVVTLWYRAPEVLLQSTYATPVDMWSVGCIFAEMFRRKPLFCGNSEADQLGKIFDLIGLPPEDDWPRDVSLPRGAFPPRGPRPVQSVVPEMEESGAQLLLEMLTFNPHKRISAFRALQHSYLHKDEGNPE
Sequence of CDK4 CCND1 (human) (P24385 whole entry, looked up): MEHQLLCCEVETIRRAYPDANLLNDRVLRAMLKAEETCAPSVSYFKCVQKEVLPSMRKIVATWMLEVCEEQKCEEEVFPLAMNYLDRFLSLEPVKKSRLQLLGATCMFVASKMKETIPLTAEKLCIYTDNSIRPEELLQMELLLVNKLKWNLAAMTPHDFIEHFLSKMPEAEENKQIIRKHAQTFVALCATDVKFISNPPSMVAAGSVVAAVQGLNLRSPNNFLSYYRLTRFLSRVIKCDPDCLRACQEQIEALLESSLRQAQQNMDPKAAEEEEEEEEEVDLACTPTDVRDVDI

NEK4 (human) = NEK4 (human) (UniProt P51957)
EPHB6 (human) = EPHB6 (human) (UniProt O15197)
NEK11 (human) = NEK11 (human) (UniProt Q8NG66)
ERBB3 (human) = ERBB3 (human) (UniProt P21860)
HIPK4 (human) = HIPK4 (human) (UniProt Q8NE63)
OXSR1 (human) = OXSR1 (human) (UniProt O95747)
Sequence of OXSR1 (human) (O95747 whole entry, looked up): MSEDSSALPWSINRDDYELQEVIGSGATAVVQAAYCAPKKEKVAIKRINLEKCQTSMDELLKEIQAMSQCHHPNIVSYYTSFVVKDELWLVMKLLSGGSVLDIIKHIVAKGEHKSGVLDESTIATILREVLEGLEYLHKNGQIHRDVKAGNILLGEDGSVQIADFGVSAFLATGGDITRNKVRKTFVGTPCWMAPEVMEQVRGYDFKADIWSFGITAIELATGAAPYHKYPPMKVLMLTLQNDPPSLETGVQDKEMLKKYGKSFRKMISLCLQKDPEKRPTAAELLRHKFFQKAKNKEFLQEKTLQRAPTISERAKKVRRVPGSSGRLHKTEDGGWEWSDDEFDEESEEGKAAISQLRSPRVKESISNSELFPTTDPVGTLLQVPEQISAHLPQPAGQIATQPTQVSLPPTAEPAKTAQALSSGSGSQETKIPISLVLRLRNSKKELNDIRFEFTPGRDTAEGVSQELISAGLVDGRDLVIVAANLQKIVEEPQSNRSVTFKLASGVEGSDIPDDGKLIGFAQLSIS

PKN3 (M.tuberculosis) = PKN3 (M.tuberculosis) (UniProt Q6P5Z2)
Sequence of PKN3 (M.tuberculosis) (Q6P5Z2 whole entry, looked up): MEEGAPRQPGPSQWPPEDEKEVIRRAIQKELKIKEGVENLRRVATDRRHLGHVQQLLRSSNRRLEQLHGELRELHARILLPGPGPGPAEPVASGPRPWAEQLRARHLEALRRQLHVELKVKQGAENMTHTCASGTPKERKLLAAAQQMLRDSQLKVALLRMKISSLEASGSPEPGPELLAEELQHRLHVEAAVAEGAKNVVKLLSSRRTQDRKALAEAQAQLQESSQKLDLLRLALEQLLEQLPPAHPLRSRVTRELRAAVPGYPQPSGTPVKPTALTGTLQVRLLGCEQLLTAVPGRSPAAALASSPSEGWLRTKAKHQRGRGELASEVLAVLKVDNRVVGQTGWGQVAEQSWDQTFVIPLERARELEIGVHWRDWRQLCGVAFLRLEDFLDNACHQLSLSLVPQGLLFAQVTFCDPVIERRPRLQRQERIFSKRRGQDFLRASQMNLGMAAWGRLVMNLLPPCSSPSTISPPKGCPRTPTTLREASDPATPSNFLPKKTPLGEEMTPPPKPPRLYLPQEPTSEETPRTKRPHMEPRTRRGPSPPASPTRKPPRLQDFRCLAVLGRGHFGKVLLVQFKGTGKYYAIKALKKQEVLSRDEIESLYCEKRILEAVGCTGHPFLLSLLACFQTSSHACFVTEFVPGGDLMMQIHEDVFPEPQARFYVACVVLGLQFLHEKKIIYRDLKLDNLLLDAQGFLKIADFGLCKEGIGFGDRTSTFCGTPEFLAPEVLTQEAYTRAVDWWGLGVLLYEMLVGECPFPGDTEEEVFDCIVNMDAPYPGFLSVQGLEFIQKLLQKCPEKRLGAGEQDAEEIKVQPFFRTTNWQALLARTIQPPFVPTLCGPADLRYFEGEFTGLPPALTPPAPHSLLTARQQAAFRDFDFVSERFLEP

TBK1 (human) = TBK1 (human) (UniProt Q9UHD2)
[2] = system: PIK3CA (human), P42336 [E545K]
DYRK2 (human) = DYRK2 (human) (UniProt Q92630)
IRAK1 (human) = IRAK1 (human) (UniProt P51617)
CDKL1 (human) = CDKL1 (human) (UniProt Q00532)
Sequence of CDKL1 (human) (Q00532 whole entry, looked up): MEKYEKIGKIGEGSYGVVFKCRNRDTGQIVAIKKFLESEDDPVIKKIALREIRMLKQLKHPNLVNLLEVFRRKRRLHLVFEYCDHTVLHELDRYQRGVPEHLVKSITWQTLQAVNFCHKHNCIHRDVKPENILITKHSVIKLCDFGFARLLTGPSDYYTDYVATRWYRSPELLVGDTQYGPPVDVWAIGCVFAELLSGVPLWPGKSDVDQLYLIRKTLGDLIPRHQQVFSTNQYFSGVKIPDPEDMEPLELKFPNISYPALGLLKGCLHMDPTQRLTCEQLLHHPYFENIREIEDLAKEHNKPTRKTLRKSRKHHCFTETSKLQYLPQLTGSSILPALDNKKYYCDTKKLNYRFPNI

PIP5K1C (human) = PIP5K1C (human) (UniProt O60331)
Sequence of PIP5K1C (human) (O60331 whole entry, looked up): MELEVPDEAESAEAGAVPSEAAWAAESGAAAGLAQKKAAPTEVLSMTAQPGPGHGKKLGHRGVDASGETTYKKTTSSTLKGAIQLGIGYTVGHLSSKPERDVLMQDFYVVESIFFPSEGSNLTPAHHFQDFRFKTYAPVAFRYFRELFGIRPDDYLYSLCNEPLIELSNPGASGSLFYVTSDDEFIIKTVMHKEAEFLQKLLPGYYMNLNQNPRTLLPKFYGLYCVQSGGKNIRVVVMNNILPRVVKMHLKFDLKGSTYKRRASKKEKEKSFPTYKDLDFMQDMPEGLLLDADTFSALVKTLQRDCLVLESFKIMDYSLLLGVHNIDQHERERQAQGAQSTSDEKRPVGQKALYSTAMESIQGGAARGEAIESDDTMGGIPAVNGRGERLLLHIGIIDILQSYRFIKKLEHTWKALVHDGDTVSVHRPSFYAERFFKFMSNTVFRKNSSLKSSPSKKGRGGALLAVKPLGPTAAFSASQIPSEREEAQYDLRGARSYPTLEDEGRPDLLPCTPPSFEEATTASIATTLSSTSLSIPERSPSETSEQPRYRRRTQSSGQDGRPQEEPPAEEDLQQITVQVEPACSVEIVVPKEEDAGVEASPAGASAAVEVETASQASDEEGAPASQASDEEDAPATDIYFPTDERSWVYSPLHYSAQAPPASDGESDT

STK38 (human) = STK38 (human) (UniProt Q15208)
[3] = system: PIK3CA (human), P42336 [E545A]
EIF2AK1 (human) = EIF2AK1 (human) (UniProt Q9BQI3)
DDR1 (human) = DDR1 (human) (UniProt Q08345)
ICK (human) = ICK (human) (UniProt Q9UPZ9)
TIE1 (human) = TIE1 (human) (UniProt P35590)

Sequence of MATK (human) (P42679 whole entry, looked up): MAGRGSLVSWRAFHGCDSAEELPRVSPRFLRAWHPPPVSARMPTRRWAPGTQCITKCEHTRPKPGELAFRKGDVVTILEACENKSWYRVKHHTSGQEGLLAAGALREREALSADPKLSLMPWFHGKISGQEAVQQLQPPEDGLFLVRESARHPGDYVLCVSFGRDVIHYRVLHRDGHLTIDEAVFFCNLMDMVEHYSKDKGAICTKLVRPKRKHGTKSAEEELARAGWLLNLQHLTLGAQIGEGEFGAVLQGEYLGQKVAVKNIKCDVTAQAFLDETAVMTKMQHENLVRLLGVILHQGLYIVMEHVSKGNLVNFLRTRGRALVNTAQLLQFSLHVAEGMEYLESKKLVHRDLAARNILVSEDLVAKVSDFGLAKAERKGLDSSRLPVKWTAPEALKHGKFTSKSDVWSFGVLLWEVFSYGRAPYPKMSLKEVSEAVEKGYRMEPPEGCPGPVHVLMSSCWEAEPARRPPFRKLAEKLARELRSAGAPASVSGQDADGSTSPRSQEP
Sequence of DSTYK (human) (Q6XUX3 whole entry, looked up): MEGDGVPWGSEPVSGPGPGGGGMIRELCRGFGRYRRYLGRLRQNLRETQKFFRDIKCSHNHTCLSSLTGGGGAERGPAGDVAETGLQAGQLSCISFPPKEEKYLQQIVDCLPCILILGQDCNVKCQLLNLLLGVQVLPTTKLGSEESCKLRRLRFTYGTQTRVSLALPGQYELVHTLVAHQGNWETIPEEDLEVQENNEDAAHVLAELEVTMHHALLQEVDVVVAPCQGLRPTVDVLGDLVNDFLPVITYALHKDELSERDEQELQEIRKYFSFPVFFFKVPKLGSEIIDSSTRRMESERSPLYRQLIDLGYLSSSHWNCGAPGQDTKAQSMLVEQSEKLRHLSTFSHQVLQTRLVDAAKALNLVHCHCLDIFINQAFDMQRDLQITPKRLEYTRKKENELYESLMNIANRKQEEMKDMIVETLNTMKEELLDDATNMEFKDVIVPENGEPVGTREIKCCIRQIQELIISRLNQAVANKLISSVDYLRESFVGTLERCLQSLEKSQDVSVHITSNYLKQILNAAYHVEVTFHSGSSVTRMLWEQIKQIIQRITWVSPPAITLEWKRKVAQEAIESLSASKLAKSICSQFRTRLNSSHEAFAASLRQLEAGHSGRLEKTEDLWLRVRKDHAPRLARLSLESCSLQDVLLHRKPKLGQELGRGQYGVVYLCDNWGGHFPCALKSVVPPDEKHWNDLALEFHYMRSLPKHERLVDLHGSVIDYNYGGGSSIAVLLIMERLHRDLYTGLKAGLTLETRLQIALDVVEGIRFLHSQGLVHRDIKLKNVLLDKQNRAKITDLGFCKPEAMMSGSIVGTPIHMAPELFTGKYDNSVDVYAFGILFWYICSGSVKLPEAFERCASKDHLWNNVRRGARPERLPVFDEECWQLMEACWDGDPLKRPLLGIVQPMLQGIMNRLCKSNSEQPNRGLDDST

C[C@@H](Oc1cc(-n2cnc3ccc(CN4CCN(C)CC4)cc32)sc1C(N)=O)c1ccccc1C(F)(F)F
kinase still bound, per cent of control (DSTYK (human)): 34% | kinase still bound, per cent of control (NEK3 (human)): 100% | kinase still bound, per cent of control (LRRK2 (human)): 60% | kinase still bound, per cent of control (MATK (human)): 52% | kinase still bound, per cent of control (HUNK (human)): 78% | kinase still bound, per cent of control (PIK3CA (human)): 52% | kinase still bound, per cent of control [1]: 14% | kinase still bound, per cent of control (ROCK1 (human)): 7.9% | kinase still bound, per cent of control (ERN1 (human)): 34% | kinase still bound, per cent of control (CDKL5 (human)): 31% | kinase still bound, per cent of control (MAK (human)): 100% | kinase still bound, per cent of control (PI4KB (human)): 100% | kinase still bound, per cent of control (SBK1 (human)): 55% | kinase still bound, per cent of control (TRPM6 (human)): 100% | kinase still bound, per cent of control (CDKL3 (human)): 100% | kinase still bound, per cent of control (MAP2K5 (human)): 43% | kinase still bound, per cent of control (RPS6KB1 (human)): 52% | kinase still bound, per cent of control (HIPK3 (human)): 37% | kinase still bound, per cent of control (PRPF4B (human)): 39% | kinase still bound, per cent of control (STK32A (human)): 66% | kinase still bound, per cent of control (CDK4 CCND1 (human)): 91% | kinase still bound, per cent of control (NEK4 (human)): 69% | kinase still bound, per cent of control (EPHB6 (human)): 59% | kinase still bound, per cent of control (NEK11 (human)): 100% | kinase still bound, per cent of control (ERBB3 (human)): 100% | kinase still bound, per cent of control (HIPK4 (human)): 36% | kinase still bound, per cent of control (OXSR1 (human)): 98% | kinase still bound, per cent of control (PKN3 (M.tuberculosis)): 27% | kinase still bound, per cent of control (TBK1 (human)): 84% | kinase still bound, per cent of control [2]: 71% | kinase still bound, per cent of control (DYRK2 (human)): 54% | kinase still bound, per cent of control (IRAK1 (human)): 23% | kinase still bound, per cent of control (CDKL1 (human)): 75% | kinase still bound, per cent of control (PIP5K1C (human)): 18% | kinase still bound, per cent of control (STK38 (human)): 71% | kinase still bound, per cent of control [3]: 40% | kinase still bound, per cent of control (EIF2AK1 (human)): 94% | kinase still bound, per cent of control (DDR1 (human)): 100% | kinase still bound, per cent of control (ICK (human)): 85%

Cc1cc([C@@H](C)Nc2ccccc2C(=O)O)c2nc(N3CCOCC3)cc(=O)n2c1
kinase still bound, per cent of control (DSTYK (human)): 100% | kinase still bound, per cent of control (NEK3 (human)): 100% | kinase still bound, per cent of control (LRRK2 (human)): 100% | kinase still bound, per cent of control (MATK (human)): 96% | kinase still bound, per cent of control (HUNK (human)): 81% | kinase still bound, per cent of control [1]: 13% | kinase still bound, per cent of control (ROCK1 (human)): 73% | kinase still bound, per cent of control (ERN1 (human)): 91% | kinase still bound, per cent of control (CDKL5 (human)): 74% | kinase still bound, per cent of control (MAK (human)): 67% | kinase still bound, per cent of control (PI4KB (human)): 100% | kinase still bound, per cent of control (SBK1 (human)): 100% | kinase still bound, per cent of control (TRPM6 (human)): 100% | kinase still bound, per cent of control (CDKL3 (human)): 90% | kinase still bound, per cent of control (MAP2K5 (human)): 100% | kinase still bound, per cent of control (RPS6KB1 (human)): 72% | kinase still bound, per cent of control (HIPK3 (human)): 89% | kinase still bound, per cent of control (PRPF4B (human)): 71% | kinase still bound, per cent of control (STK32A (human)): 89% | kinase still bound, per cent of control (CDK4 CCND1 (human)): 100% | kinase still bound, per cent of control (NEK4 (human)): 61% | kinase still bound, per cent of control (EPHB6 (human)): 41% | kinase still bound, per cent of control (NEK11 (human)): 100% | kinase still bound, per cent of control (ERBB3 (human)): 100% | kinase still bound, per cent of control (HIPK4 (human)): 100% | kinase still bound, per cent of control (OXSR1 (human)): 100% | kinase still bound, per cent of control (PKN3 (M.tuberculosis)): 98% | kinase still bound, per cent of control (TBK1 (human)): 100% | kinase still bound, per cent of control (DYRK2 (human)): 89% | kinase still bound, per cent of control (IRAK1 (human)): 90% | kinase still bound, per cent of control (CDKL1 (human)): 100% | kinase still bound, per cent of control (TIE1 (human)): 100% | kinase still bound, per cent of control (PIP5K1C (human)): 63% | kinase still bound, per cent of control (STK38 (human)): 100% | kinase still bound, per cent of control (EIF2AK1 (human)): 97% | kinase still bound, per cent of control (DDR1 (human)): 100% | kinase still bound, per cent of control (ICK (human)): 100%

O=C(O)c1ccc(Nc2ncc3c(n2)-c2ccc(Cl)cc2C(c2c(F)cccc2F)=NC3)cc1
kinase still bound, per cent of control (DSTYK (human)): 100% | kinase still bound, per cent of control (NEK3 (human)): 100% | kinase still bound, per cent of control (LRRK2 (human)): 82% | kinase still bound, per cent of control (MATK (human)): 84% | kinase still bound, per cent of control (HUNK (human)): 59% | kinase still bound, per cent of control (PIK3CA (human)): 100% | kinase still bound, per cent of control [1]: 68% | kinase still bound, per cent of control (ROCK1 (human)): 63% | kinase still bound, per cent of control (ERN1 (human)): 100% | kinase still bound, per cent of control (CDKL5 (human)): 100% | kinase still bound, per cent of control (MAK (human)): 78% | kinase still bound, per cent of control (PI4KB (human)): 100% | kinase still bound, per cent of control (SBK1 (human)): 100% | kinase still bound, per cent of control (TRPM6 (human)): 100% | kinase still bound, per cent of control (CDKL3 (human)): 100% | kinase still bound, per cent of control (MAP2K5 (human)): 80% | kinase still bound, per cent of control (RPS6KB1 (human)): 54% | kinase still bound, per cent of control (HIPK3 (human)): 80% | kinase still bound, per cent of control (PRPF4B (human)): 100% | kinase still bound, per cent of control (STK32A (human)): 54% | kinase still bound, per cent of control (CDK4 CCND1 (human)): 98% | kinase still bound, per cent of control (NEK4 (human)): 66% | kinase still bound, per cent of control (EPHB6 (human)): 41% | kinase still bound, per cent of control (NEK11 (human)): 100% | kinase still bound, per cent of control (ERBB3 (human)): 74% | kinase still bound, per cent of control (HIPK4 (human)): 31% | kinase still bound, per cent of control (OXSR1 (human)): 94% | kinase still bound, per cent of control (PKN3 (M.tuberculosis)): 96% | kinase still bound, per cent of control (TBK1 (human)): 100% | kinase still bound, per cent of control [2]: 100% | kinase still bound, per cent of control (IRAK1 (human)): 93% | kinase still bound, per cent of control (CDKL1 (human)): 100% | kinase still bound, per cent of control (PIP5K1C (human)): 49% | kinase still bound, per cent of control (STK38 (human)): 100% | kinase still bound, per cent of control [3]: 20% | kinase still bound, per cent of control (EIF2AK1 (human)): 89% | kinase still bound, per cent of control (ICK (human)): 86%
